By IC50 is commonly meant the point on the concentration scale where inhibition reaches its midpoint.

Holding throughout (conditions): biochemical, HTRF KinEASE-TK
Background: In TR-FRET formats the signal depends on donor and acceptor labels being close together.

One test has as its target PDGFRβ (Homo sapiens (Human), UniProt P09619). In words: Inhibition of PDGFRβ kinase activity (HTRF KinEASE-TK). On the procedure:
(§1) Inhibition of c-Kit, PDGFRα, PDGFRβ, CSFIR and FLT3 Kinase Activity
(§2) Compounds were evaluated to determine the potency with which they inhibit the kinase activity of the following panel of tyrosine kinases: c-Kit (SignalChem, Product #: K06-11BG), PDGFRα (SignalChem, Product #: P12-18G), PDGFRβ (SignalChem, Product #: P13-11G), CSFIR (SignalChem, Product #: C74-11G) and FLT3 (Invitrogen, Product #: PR4666C). Activity was determined as a function of phosphorylated biotinylated TK peptide generated by the transfer of phosphate from ATP as measured by the use of the HTRF KinEASE-TK assay kit (Cisbio, Product #: 62TKOPEJ). Levels of phosphorylated biotinylated TK peptide (Part 61TKOBLC of KinEASE assay kit) are quantified by its capture by phosphor-TK-Antibody-Cryptate (Part of KinEASE assay kit) and XL665-labeled Streptavidin (Part 610SAXLG of KinEASE assay kit) followed by measurement of Time-Resolved Fluorescence Resonance Energy Transfer (TR-FRET) signal. On the day of the assay, compounds were solubilized in DMSO and dispensed into a 384-well white Opti-plate (PerkinElmer, catalog #6007290) to generate a 22 point 1:2 titration. Enzyme solution was prepared for each of the tyrosine kinases in 50 mM HEPES, pH 7.4, 5 mM MgCl2 for c-Kit or 10 mM MgCl2 for FLT3, CSFIR, PDGFRa and PDGFRβ, 2 mM MnCl2, 0.01% Brij-35 and 0.01% BSA. Working enzyme concentrations were prepared for c-Kit at 2 nM (2×), PDGFRa and PDGFRß at 10 nM (2×), CSFIR at 2 nM (2×) and FLT3 at 0.4 nM (2×). Five microliters of enzyme dilution of each tyrosine kinase were added to their respective 384-well white Opti-plate pre-dispensed with compound and allowed to incubate for 1 h at rt. Utilizing the same enzyme buffer recipe, 2x substrate mixes were prepared for each enzyme as follows: For c-Kit, 1.6 μM (2×) TK substrate and 16 μM (2×) ATP (Promega, catalog #V915). For PDGFRα, 3.2 μM TK substrate and 1 μM ATP. For PDGFRβ, 3.2 μM TK substrate and 40 μM ATP. For CSFIR, […] TK substrate and 20 μM ATP. For FLT3, 3.2 μM TK substrate and 100 μM ATP. Reactions were initiated by addition of 5 μL of the respective 2x substrate mix to each well of the plates containing the respective tyrosine kinase enzymes and were allowed to proceed for 120 minutes at rt, except for FLT3, the reaction time is 45 min. Following the reaction, 10 μL of detection mix consisting of 0.2 μM (2×) of Streptavidin-XL665 and 2 μM (2×) of TK-Antibody-Cryptate prepared in detection buffer (Part 62SDBRDF of KinEASE assay kit) was added and then allowed to incubate for 60 min. The TR-FRET signal was quantified by measuring the ratio of emission at 665 nm to 620 nm after excitation at 320 nm by reading on a PerkinElmer Envision multimode reader. Compound potencies (IC50 values) were determined using a standard 4-parameter non-linear regression fit.

Another test addresses CSF1R (Homo sapiens (Human), UniProt P07333). As to the kind of experiment: Inhibition of CSF1R kinase activity (HTRF KinEASE-TK). On the procedure:
as §1, §2

The next test addresses c-Kit (Homo sapiens (Human), UniProt P10721). As to the kind of experiment: Inhibition of c-Kit kinase activity (HTRF KinEASE-TK). In kind it is biochemical. On the procedure: as §1, §2
The target of the next test is PDGFRα (Homo sapiens (Human), UniProt P16234). In words: Inhibition of PDGFRα kinase activity (HTRF KinEASE-TK). On the procedure:
as §1, §2

Chain of PDGFRα (P16234 24-1089): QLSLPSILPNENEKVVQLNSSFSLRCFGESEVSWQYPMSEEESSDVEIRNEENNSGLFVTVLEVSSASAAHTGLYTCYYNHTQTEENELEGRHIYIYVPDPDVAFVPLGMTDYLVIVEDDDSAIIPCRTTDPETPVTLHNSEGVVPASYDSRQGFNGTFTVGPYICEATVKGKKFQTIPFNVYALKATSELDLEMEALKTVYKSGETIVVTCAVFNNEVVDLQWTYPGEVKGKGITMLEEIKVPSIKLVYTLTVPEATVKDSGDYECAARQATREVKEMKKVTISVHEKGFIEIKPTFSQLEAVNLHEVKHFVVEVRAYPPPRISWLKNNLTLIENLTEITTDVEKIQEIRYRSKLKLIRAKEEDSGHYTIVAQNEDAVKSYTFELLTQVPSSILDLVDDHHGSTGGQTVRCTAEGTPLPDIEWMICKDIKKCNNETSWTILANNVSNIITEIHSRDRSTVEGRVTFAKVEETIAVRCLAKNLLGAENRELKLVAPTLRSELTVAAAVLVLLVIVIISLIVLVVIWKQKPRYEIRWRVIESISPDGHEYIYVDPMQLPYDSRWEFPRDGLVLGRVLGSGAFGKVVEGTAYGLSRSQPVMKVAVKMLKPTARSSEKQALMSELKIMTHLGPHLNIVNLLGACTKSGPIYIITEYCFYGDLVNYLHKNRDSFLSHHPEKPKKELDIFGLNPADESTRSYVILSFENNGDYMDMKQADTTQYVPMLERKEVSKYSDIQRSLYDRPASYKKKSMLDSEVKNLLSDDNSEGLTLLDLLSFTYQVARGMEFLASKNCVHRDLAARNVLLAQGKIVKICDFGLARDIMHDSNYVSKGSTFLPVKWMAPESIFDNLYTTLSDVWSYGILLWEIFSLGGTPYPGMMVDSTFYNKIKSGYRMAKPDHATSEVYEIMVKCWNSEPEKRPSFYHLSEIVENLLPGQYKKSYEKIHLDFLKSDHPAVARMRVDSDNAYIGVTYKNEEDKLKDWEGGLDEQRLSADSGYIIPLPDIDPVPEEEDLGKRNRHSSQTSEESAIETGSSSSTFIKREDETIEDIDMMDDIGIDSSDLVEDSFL
Chain of CSF1R (P07333 20-972): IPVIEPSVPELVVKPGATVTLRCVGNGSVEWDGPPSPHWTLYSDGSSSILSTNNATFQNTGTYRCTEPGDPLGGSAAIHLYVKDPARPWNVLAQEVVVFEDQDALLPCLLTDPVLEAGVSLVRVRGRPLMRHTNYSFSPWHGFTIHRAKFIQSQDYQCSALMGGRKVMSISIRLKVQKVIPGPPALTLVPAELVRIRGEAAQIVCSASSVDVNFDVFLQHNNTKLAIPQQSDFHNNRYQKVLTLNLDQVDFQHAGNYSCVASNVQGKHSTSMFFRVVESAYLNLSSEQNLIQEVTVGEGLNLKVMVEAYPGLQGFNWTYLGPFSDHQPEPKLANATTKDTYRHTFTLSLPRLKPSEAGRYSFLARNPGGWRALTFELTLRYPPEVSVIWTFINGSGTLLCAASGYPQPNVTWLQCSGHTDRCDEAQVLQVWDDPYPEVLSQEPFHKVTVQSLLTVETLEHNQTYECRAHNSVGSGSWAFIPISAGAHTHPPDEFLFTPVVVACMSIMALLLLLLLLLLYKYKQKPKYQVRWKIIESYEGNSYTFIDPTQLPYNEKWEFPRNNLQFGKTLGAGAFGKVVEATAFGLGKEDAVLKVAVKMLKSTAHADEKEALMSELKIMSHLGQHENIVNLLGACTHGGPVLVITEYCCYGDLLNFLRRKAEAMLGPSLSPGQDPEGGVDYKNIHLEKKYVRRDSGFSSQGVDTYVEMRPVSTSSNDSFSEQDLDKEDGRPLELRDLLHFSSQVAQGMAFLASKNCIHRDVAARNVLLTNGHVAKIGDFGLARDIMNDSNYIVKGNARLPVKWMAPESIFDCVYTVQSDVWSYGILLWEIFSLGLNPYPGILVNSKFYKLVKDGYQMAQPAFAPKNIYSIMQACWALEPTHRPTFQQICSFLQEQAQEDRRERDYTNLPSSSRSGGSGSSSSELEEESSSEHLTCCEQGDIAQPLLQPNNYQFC
Chain of PDGFRβ (P09619 33-1106): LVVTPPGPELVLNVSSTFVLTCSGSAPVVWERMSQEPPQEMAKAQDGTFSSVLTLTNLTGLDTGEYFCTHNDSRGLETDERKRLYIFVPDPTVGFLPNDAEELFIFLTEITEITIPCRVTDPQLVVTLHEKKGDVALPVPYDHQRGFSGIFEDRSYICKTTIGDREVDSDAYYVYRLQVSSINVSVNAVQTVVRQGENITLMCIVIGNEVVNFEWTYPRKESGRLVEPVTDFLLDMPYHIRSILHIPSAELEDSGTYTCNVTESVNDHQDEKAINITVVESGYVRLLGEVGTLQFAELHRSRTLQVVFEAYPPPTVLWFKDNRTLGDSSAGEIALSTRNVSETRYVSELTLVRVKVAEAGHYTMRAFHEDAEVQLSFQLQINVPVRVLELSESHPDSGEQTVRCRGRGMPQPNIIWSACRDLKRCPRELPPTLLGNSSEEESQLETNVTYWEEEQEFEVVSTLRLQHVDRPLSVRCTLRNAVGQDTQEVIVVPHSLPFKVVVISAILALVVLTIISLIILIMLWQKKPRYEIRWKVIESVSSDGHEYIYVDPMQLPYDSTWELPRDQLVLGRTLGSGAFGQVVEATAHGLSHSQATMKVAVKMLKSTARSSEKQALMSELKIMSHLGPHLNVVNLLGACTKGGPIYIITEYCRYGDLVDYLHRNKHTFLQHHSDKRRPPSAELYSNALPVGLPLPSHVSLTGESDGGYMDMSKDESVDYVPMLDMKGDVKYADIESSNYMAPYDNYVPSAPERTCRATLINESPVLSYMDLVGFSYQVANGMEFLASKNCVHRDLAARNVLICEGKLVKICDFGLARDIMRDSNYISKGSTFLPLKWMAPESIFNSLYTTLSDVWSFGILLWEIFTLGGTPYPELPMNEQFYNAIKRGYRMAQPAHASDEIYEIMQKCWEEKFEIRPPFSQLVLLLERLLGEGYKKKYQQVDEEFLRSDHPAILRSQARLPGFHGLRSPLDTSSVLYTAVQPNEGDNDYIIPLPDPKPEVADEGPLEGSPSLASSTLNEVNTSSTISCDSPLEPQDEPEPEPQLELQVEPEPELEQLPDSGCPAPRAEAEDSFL
Chain of c-Kit (P10721 26-976): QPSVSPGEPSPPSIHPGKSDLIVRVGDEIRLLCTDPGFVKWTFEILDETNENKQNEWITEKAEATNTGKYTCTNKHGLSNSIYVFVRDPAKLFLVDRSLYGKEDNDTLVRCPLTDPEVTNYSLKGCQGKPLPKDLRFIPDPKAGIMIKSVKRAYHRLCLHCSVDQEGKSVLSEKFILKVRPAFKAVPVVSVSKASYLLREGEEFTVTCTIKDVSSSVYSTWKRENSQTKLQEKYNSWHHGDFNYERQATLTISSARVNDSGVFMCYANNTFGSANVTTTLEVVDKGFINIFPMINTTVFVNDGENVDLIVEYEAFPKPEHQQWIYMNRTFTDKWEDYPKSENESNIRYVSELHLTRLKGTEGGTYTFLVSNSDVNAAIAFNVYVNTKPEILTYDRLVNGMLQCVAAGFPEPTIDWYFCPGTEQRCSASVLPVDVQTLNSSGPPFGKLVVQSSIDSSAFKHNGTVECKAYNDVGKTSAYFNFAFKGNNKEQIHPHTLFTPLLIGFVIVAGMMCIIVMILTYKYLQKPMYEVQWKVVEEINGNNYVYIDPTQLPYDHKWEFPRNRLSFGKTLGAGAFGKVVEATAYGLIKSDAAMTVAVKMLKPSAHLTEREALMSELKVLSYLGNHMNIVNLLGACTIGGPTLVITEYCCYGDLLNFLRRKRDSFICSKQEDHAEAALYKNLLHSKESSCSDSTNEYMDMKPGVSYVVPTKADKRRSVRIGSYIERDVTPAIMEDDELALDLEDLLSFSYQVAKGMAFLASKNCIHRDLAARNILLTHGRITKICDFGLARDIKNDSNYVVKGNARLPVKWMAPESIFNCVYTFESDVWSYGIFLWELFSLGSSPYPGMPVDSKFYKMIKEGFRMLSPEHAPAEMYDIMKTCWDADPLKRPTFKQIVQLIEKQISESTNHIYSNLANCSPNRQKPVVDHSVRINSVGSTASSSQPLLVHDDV

As for `Cc1ncc(C(=O)Nc2cc(C(=O)Nc3ccc(C(F)F)cn3)c(F)cc2C)s1` [Example 16, N-[5-[[5-(Difluoromethyl)pyridin-2-yl]carbamoyl]-4-fluoro-2-methylphenyl]-2-methyl-1,3-thiazole-5-carboxamide], the IC50 against PDGFRβ was greater than 1 µM; on CSF1R, greater than 1 µM; on c-Kit, less than 0.1 µM; against PDGFRα, greater than 1 µM.

On to `Cc1ncc(C(=O)Nc2cc(C(=O)Nc3ccc(C(F)(F)F)nc3)c(F)cc2C)s1` [Example 26, N-[4-Fluoro-2-methyl-5-[[6-(trifluoromethyl)pyridin-3-yl]carbamoyl]phenyl]-2-methyl-1,3-thiazole-5-carboxamide], for which the IC50 against PDGFRβ is greater than 1 µM; against CSF1R it was greater than 1 µM; on c-Kit it was less than 0.1 µM; against PDGFRα, greater than 1 µM.

Take `Cc1ncc(C(=O)Nc2cc(C(=O)Nc3ccc(C4CC4)nn3)c(F)cc2C)s1` [Example 35, N-[5-[(6-cyclopropylpyridazin-3-yl)carbamoyl]-4-fluoro-2-methylphenyl]-2-methyl-1,3-thiazole-5-carboxamide]: the IC50 on PDGFRβ is greater than 1 µM; at CSF1R, greater than 1 µM; against c-Kit, less than 0.1 µM; on PDGFRα, greater than 1 µM.

For the molecule `COCc1ccc(NC(=O)c2cc(NC(=O)c3cnc(C)s3)c(C)cc2F)nc1` [Example 37, N-[4-fluoro-5-[[5-(methoxymethyl)pyridin-2-yl]carbamoyl]-2-methylphenyl]-2-methyl-1,3-thiazole-5-carboxamide], the IC50 on PDGFRβ is greater than 1 µM; against CSF1R, greater than 1 µM; against c-Kit it was 0.1 to 1 µM; at PDGFRα it was greater than 1 µM.

Take `Cc1ncc(C(=O)Nc2cc(C(=O)Nc3ccc(OCC(F)(F)F)cn3)c(F)cc2C)s1` [Example 41, N-[4-fluoro-2-methyl-5-[[5-(2,2,2-trifluoroethoxy)pyridin-2-yl]carbamoyl]phenyl]-2-methyl-1,3-thiazole-5-carboxamide]: the IC50 is greater than 1 µM on PDGFRβ, greater than 1 µM on CSF1R, less than 0.1 µM against c-Kit and greater than 1 µM at PDGFRα.

Consider `Cc1ncc(C(=O)Nc2cc(C(=O)Nc3cnc(C4CC4)nc3)c(F)cc2C)s1` [Example 42, N-[5-[(2-cyclopropylpyrimidin-5-yl)carbamoyl]-4-fluoro-2-methylphenyl]-2-methyl-1,3-thiazole-5-carboxamide], for which the IC50 at PDGFRβ is greater than 1 µM; against CSF1R it was greater than 1 µM; against c-Kit, less than 0.1 µM; against PDGFRα, greater than 1 µM.

On to `Cc1ncc(C(=O)Nc2cc(C(=O)Nc3cnc(C4CC4)cn3)c(F)cc2C)s1` [Example 43, N-[5-[(5-cyclopropylpyrazin-2-yl)carbamoyl]-4-fluoro-2-methylphenyl]-2-methyl-1,3-thiazole-5-carboxamide], for which the IC50 against PDGFRβ was greater than 1 µM; at CSF1R, greater than 1 µM; against c-Kit, less than 0.1 µM; against PDGFRα, greater than 1 µM.

In the case of `COCc1ccc(NC(=O)c2cc(NC(=O)c3cnc(C)s3)c(Cl)cc2F)nc1` [Example 47, N-[2-chloro-4-fluoro-5-[[5-(methoxymethyl)pyridin-2-yl]carbamoyl]phenyl]-2-methyl-1,3-thiazole-5-carboxamide], the IC50 on PDGFRβ was greater than 1 µM; on CSF1R, greater than 1 µM; against c-Kit, 0.1 to 1 µM; against PDGFRα, greater than 1 µM.

Turning to `Cc1ncc(C(=O)Nc2cc(C(=O)NCCCN3CCOCC3)c(F)cc2C)s1` [Example 57, N-[4-Fluoro-2-methyl-5-(3-morpholin-4-ylpropylcarbamoyl)phenyl]-2-methyl-1,3-thiazole-5-carboxamide], the IC50 is greater than 1 µM against PDGFRβ, greater than 1 µM at CSF1R, 0.1 to 1 µM against c-Kit and greater than 1 µM against PDGFRα.

For the molecule `Cc1cc(F)c(C(=O)Nc2ccc(OC3CC3)cn2)cc1NC(=O)c1cnc(C(F)F)s1` [Example 59, N-[5-[(5-Cyclopropyloxypyridin-2-yl)carbamoyl]-4-fluoro-2-methylphenyl]-2-(difluoromethyl)-1,3-thiazole-5-carboxamide], the IC50 is greater than 1 µM against PDGFRβ, greater than 1 µM against CSF1R, less than 0.1 µM on c-Kit and greater than 1 µM on PDGFRα.

`Cc1cc(F)c(C(=O)Nc2ccc(OC3CC3)cn2)cc1NC(=O)c1cnc(C2CC2)s1` [Example 60, 2-Cyclopropyl-N-[5-[(5-cyclopropyloxypyridin-2-yl)carbamoyl]-4-fluoro-2-methylphenyl]-1,3-thiazole-5-carboxamide]: the IC50 against PDGFRβ was greater than 1 µM; at CSF1R it was greater than 1 µM; at c-Kit, 0.1 to 1 µM; on PDGFRα, greater than 1 µM.

With `Cc1ncc(C(=O)Nc2cc(C(=O)Nc3ccc(OC4CC4)c(C)n3)c(F)cc2C)s1` [Example 62, N-[5-[(5-Cyclopropyloxy-6-methylpyridin-2-yl)carbamoyl]-4-fluoro-2-methylphenyl]-2-methyl-1,3-thiazole-5-carboxamide], the half-maximal inhibitory concentration (IC50) was greater than 1 µM at PDGFRβ, greater than 1 µM on CSF1R, less than 0.1 µM at c-Kit and greater than 1 µM against PDGFRα.

Regarding `Cc1ncc(C(=O)Nc2cc(C(=O)Nc3ccc(OCC4CC4)cn3)c(F)cc2C)s1` [Example 65, N-[5-[[5-(cyclopropylmethoxy)pyridin-2-yl]carbamoyl]-4-fluoro-2-methylphenyl]-2-methyl-1,3-thiazole-5-carboxamide], the IC50 at PDGFRβ was greater than 1 µM; at CSF1R it was greater than 1 µM; at c-Kit, less than 0.1 µM; on PDGFRα it was greater than 1 µM.

In the case of `Cc1ncc(C(=O)Nc2cc(C(=O)NCC3(F)CCC3)c(F)cc2C)s1` [Example 68, N-[4-Fluoro-5-[(1-fluorocyclobutyl)methylcarbamoyl]-2-methylphenyl]-2-methyl-1,3-thiazole-5-carboxamide], the half-inhibitory concentration (IC50) against PDGFRβ was greater than 1 µM; on CSF1R, greater than 1 µM; at c-Kit it was 0.1 to 1 µM; on PDGFRα it was greater than 1 µM.

`Cc1ncc(C(=O)Nc2cc(C(=O)Nc3ccn(C(F)F)n3)c(F)cc2C)s1` [Example 69, N-[5-[[1-(difluoromethyl)pyrazol-3-yl]carbamoyl]-4-fluoro-2-methylphenyl]-2-methyl-1,3-thiazole-5-carboxamide]: the half-maximal inhibitory concentration (IC50) was greater than 1 µM against PDGFRβ, greater than 1 µM on CSF1R, 0.1 to 1 µM on c-Kit and greater than 1 µM against PDGFRα.

As to `Cc1ncc(C(=O)Nc2cc(C(=O)NCc3ccn(C(C)C)n3)c(F)cc2C)s1` [Example 79, N-[4-fluoro-2-methyl-5-[(1-propan-2-ylpyrazol-3-yl)methylcarbamoyl]phenyl]-2-methyl-1,3-thiazole-5-carboxamide], the IC50 against PDGFRβ was greater than 1 µM; on CSF1R, greater than 1 µM; against c-Kit it was less than 0.1 µM; against PDGFRα it was greater than 1 µM.

Regarding `Cc1cc(F)c(C(=O)Nc2ccc(OC3CC3)cn2)cc1NC(=O)c1cnc(NC(=O)OC2CCC2)s1` [Example 106], the IC50 on PDGFRβ is 0.1 to 1 µM; at CSF1R it was greater than 1 µM; on c-Kit it was less than 0.1 µM; at PDGFRα, greater than 1 µM.

As for `Cc1cc(F)c(C(=O)Nc2ccc(OC3CC3)cn2)cc1NC(=O)c1cnc(NC(=O)[C@@H]2CCOC2)s1` [Example 107, N-[5-[(5-cyclopropyloxypyridin-2-yl)carbamoyl]-4-fluoro-2-methylphenyl]-2-[[(3R)-oxolane-3-carbonyl]amino]-1,3-thiazole-5-carboxamide], the IC50 against PDGFRβ is 0.1 to 1 µM; against CSF1R, greater than 1 µM; against c-Kit, less than 0.1 µM; against PDGFRα, greater than 1 µM.

(Values after patent publication US20250145606A1 (Arcus Biosciences, Inc., priority 2023, published 2025).)
